According to paper PMC4965013, “Open Source Drug Discovery with the Malaria Box Compound Collection for Neglected Diseases and Beyond” (PLoS Pathogens, 2016):

Legend:
[1] = system: P. falciparum 3D7 trophozoites; assay: Metabolomic fingerprint profiling LC-MS; type: cell-based, Plasmodium falciparum; design: UDP-D-glucose / ADP-D-glucose: unit not given here; conditions: for Acetyllysine / N-acetyl-L-ornithine / N-carbamoyl-L-aspartate / NADPH / dAMP / dCMP / dTDP / dTMP / dTTP / dihydroorotate / orotate / DLH / DLS/SDL/SID / PD / PEE / PVNF / 3-phosphoglycerate / ADP-D-glucose / ATP / CDP / D-sedoheptulose-1/7-phosphate / FAD / GMP / NAD+ / NADP+ / Octoluse Bisphosphate / Pyroglutamic acid / UDP-D-glucose / UDP-D-glucuronate / UDP-N-acetyl-glucosamine / UDP / UMP / UTP / a-ketoglutarate / citrate/isocitrate / cytidine / dATP / dGMP/AMP / fumarate / glucose-1/6-phosphate / glycerate / guanine / guanosine / hypoxanthine / indole / inosine / nicotinate / ornithine / phosphoenolpyruvate / pyruvate / ribose-phosphate / sarcosine/alanine / sn-glycerol-3-phosphate / succinate/methylmalonic acid / uridine / xanthosine: S2 Table Metabolomics; for Acetyllysine: metabolite Acetyllysine; for N-acetyl-L-ornithine: metabolite N-acetyl-L-ornithine; for N-carbamoyl-L-aspartate: metabolite N-carbamoyl-L-aspartate; for NADPH: metabolite NADPH; for dAMP: metabolite dAMP; for dCMP: metabolite dCMP; for dTDP: metabolite dTDP; for dTMP: metabolite dTMP; for dTTP: metabolite dTTP; for dihydroorotate: metabolite dihydroorotate; for orotate: metabolite orotate; for DLH: peptide DLH; for DLS/SDL/SID: peptide DLS/SDL/SID; for PD: peptide PD; for PEE: peptide PEE; for PVNF: peptide PVNF; for 3-phosphoglycerate: metabolite 3-phosphoglycerate; for ADP-D-glucose: metabolite ADP-D-glucose; for ATP: metabolite ATP; for CDP: metabolite CDP; for CDP / D-sedoheptulose-1/7-phosphate / GMP / Octoluse Bisphosphate / UDP / UMP / UTP / citrate/isocitrate / dGMP/AMP / fumarate / glucose-1/6-phosphate / glycerate / guanine / guanosine / inosine / pyruvate / sarcosine/alanine / succinate/methylmalonic acid / uridine / xanthosine: change in metabolite level after compound treatment; for D-sedoheptulose-1/7-phosphate: metabolite D-sedoheptulose-1/7-phosphate; for FAD: metabolite FAD; for GMP: metabolite GMP; for NAD+: metabolite NAD+; for NADP+: metabolite NADP+; for Octoluse Bisphosphate: metabolite Octoluse Bisphosphate; for Pyroglutamic acid: metabolite Pyroglutamic acid; for UDP-D-glucose: metabolite UDP-D-glucose; for UDP-D-glucuronate: metabolite UDP-D-glucuronate; for UDP-N-acetyl-glucosamine: metabolite UDP-N-acetyl-glucosamine; for UDP: metabolite UDP; for UMP: metabolite UMP; for UTP: metabolite UTP; for a-ketoglutarate: metabolite a-ketoglutarate; for citrate/isocitrate: metabolite citrate/isocitrate; for cytidine: metabolite cytidine; for dATP: metabolite dATP; for dGMP/AMP: metabolite dGMP/AMP; for fumarate: metabolite fumarate; for glucose-1/6-phosphate: metabolite glucose-1/6-phosphate; for glycerate: metabolite glycerate; for guanine: metabolite guanine; for guanosine: metabolite guanosine; for hypoxanthine: metabolite hypoxanthine; for indole: metabolite indole; for inosine: metabolite inosine; for 2_3-Diphosphoglyceric acid / 4-phosphopantothenate / 6-phospho-D-gluconate / FMN / IMP / Pyrophosphate / Sedoheptoluse bisphosphate / cyclic-AMP / glutathione disulfide / lactate / myo-inositol: metabolite level change after treatment; for nicotinate: metabolite nicotinate; for ornithine: metabolite ornithine; for phosphoenolpyruvate: metabolite phosphoenolpyruvate; for pyruvate: metabolite pyruvate; for ribose-phosphate: metabolite ribose-phosphate; for sarcosine/alanine: metabolite sarcosine/alanine; for sn-glycerol-3-phosphate: metabolite sn-glycerol-3-phosphate; for succinate/methylmalonic acid: metabolite succinate/methylmalonic acid; for uridine: metabolite uridine; for xanthosine: metabolite xanthosine
[2] = system: P. falciparum; assay: EC50 listed in S2 Table Metabolomics (used to set the concentration tested); type: cell-based; conditions: Plasmodium falciparum; EC50 used for Factor_XEC50 in metabolomics; read-out: EC50_nM

## CCOC(=O)c1cnc2ccc(CC)cc2c1O [MMV007116]
[1]
  Acetyllysine: -0.1012
  N-acetyl-L-ornithine: 0.0981
  N-carbamoyl-L-aspartate: 2.971
  NADPH: -0.5029
  dAMP: -0.4219
  dCMP: 0.4317
  dTDP: -1.171
  dTMP: -0.8513
  dTTP: -0.7029
  dihydroorotate: 3.788
  orotate: -1.509
  DLH: 0.2963
  DLS/SDL/SID: 0.1623
  PD: 0.3262
  PEE: 0.1615
  PVNF: 0.2601
  3-phosphoglycerate: -0.1794
  ADP-D-glucose: 0.1742
  ATP: 0.4661
  CDP: -0.7049
  D-sedoheptulose-1/7-phosphate: -0.06275
  FAD: 0.2601
  GMP: -0.15
  NAD+: 0.1229
  NADP+: 0.2138
  Octoluse Bisphosphate: 0.1604
  Pyroglutamic acid: 0.5147
  UDP-D-glucose: 0.04103
  UDP-D-glucuronate: 0.1753
  UDP-N-acetyl-glucosamine: -0.1032
  UDP: -1.173
  UMP: -0.7684
  UTP: -0.9344
  a-ketoglutarate: -0.7057
  citrate/isocitrate: -0.7167
  cytidine: 0.3209
  dATP: 0.325
  dGMP/AMP: -0.3675
  fumarate: 0.4728
  glucose-1/6-phosphate: 0.07021
  glycerate: -0.09904
  guanine: -0.05466
  guanosine: -0.14
  hypoxanthine: -0.2065
  indole: -0.3037
  inosine: -0.2408
  2_3-Diphosphoglyceric acid: 0.3408
  4-phosphopantothenate: -0.2638
  6-phospho-D-gluconate: 0.07683
  FMN: -0.08712
  IMP: -0.2111
  Pyrophosphate: 0.42
  Sedoheptoluse bisphosphate: 0.05124
  cyclic-AMP: 0.01532
  glutathione disulfide: 0.02122
  lactate: -0.5604
  myo-inositol: -0.5893
  nicotinate: -0.6598
  ornithine: -0.07172
  phosphoenolpyruvate: -0.09558
  pyruvate: -0.6031
  ribose-phosphate: 0.2426
  sarcosine/alanine: -0.04206
  sn-glycerol-3-phosphate: 0.1096
  succinate/methylmalonic acid: 0.07837
  uridine: -1.178
  xanthosine: 0.04101
[2]
  EC50: 351 nM

## Cc1ccc(N2C3c4ccccc4N(S(=O)(=O)c4ccc(C)cc4)C2c2ccccc2N3S(=O)(=O)c2ccc(C)cc2)cc1 [MMV007160]
[1]
  Acetyllysine: 0.3548
  N-acetyl-L-ornithine: 0.3325
  N-carbamoyl-L-aspartate: 1.35
  NADPH: 0.1135
  dAMP: 0.01944
  dCMP: 0.09265
  dTDP: 0.2488
  dTMP: 0.1305
  dTTP: 0.2593
  dihydroorotate: 1.082
  orotate: 0.8469
  DLH: 0.1334
  DLS/SDL/SID: 0.2278
  PD: -0.1641
  PEE: -0.1118
  PVNF: 0.2167
  3-phosphoglycerate: 0.1652
  ADP-D-glucose: -0.01319
  ATP: 0.3343
  CDP: 0.1565
  D-sedoheptulose-1/7-phosphate: 0.1973
  FAD: -0.002001
  GMP: 0.2649
  NAD+: 0
  NADP+: 0.07922
  Octoluse Bisphosphate: 0.295
  Pyroglutamic acid: 0.3777
  UDP-D-glucose: 0.05012
  UDP-D-glucuronate: 0.1524
  UDP-N-acetyl-glucosamine: -0.001304
  UDP: 0.1082
  UMP: 0.008735
  UTP: 0.1487
  a-ketoglutarate: 0.5892
  citrate/isocitrate: 0.4078
  cytidine: 0.08232
  dATP: 0.1879
  dGMP/AMP: 0.0905
  fumarate: 0.3202
  glucose-1/6-phosphate: 0.8192
  glycerate: 0.7953
  guanine: 0.3293
  guanosine: 0.8873
  hypoxanthine: 0.7164
  indole: 0.6321
  inosine: 0.395
  2_3-Diphosphoglyceric acid: 0.1996
  4-phosphopantothenate: 0.1099
  6-phospho-D-gluconate: 0.1949
  FMN: 0.06109
  IMP: -0.03231
  Pyrophosphate: 0.1406
  Sedoheptoluse bisphosphate: 0.1591
  cyclic-AMP: 0.1479
  glutathione disulfide: 0.15
  lactate: 0.5915
  myo-inositol: 0.754
  nicotinate: 0.5248
  ornithine: 0.05899
  phosphoenolpyruvate: 0.1975
  pyruvate: -0.02541
  ribose-phosphate: -0.3937
  sarcosine/alanine: 0.2516
  sn-glycerol-3-phosphate: -0.6224
  succinate/methylmalonic acid: 0.03261
  uridine: 0.5939
  xanthosine: 0.5985
[2]
  EC50: 24.8 nM
